Laboratory results reported in PubChem BioAssay (NCI).
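Test compounds were applied to cells in 96-well plates for 48 hours at 5 doses. GI50 = concentration required for 50% inhibition of growth. At the TGI there is no net growth.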

Assays:
Assay in all cases: NCI-60 cell line screen, 48 h
786-0 renal = tested on: 786-0 renal
HCC-2998 colon = tested on: HCC-2998 colon
HCT-116 colon = tested on: HCT-116 colon
HL-60(TB) leukemia = tested on: HL-60(TB) leukemia
KM12 colon = tested on: KM12 colon
RXF 393 renal = tested on: RXF 393 renal
SF-539 CNS = tested on: SF-539 CNS
TK-10 renal = tested on: TK-10 renal
BT-549 breast = tested on: BT-549 breast
OVCAR-5 ovarian = tested on: OVCAR-5 ovarian

| SMILES | TGI (786-0 renal) [µM] | TGI (HCC-2998 colon) [µM] | TGI (HCT-116 colon) [µM] | TGI (HL-60(TB) leukemia) [µM] | TGI (KM12 colon) [µM] | TGI (RXF 393 renal) [µM] | TGI (SF-539 CNS) [µM] | TGI (TK-10 renal) [µM] | GI50 (786-0 renal) [µM] | GI50 (BT-549 breast) [µM] | TGI (BT-549 breast) [µM] | GI50 (HCT-116 colon) [µM] | GI50 (HL-60(TB) leukemia) [µM] | GI50 (KM12 colon) [µM] | GI50 (OVCAR-5 ovarian) [µM] | TGI (OVCAR-5 ovarian) [µM] | GI50 (RXF 393 renal) [µM] | GI50 (SF-539 CNS) [µM] | GI50 (TK-10 renal) [µM] | GI50 (HCC-2998 colon) [µM] |
| --- | --- | --- | --- | --- | --- | --- | --- | --- | --- | --- | --- | --- | --- | --- | --- | --- | --- | --- | --- | --- |
| CCC12CCCN(Cc3ccccc3)C1c1c(n(C)c3ccccc13)CC2 (centres undefined) | > 253 | > 253 | > 253 | > 253 | > 253 | > 253 | > 253 | > 253 |  |  |  |  |  |  |  |  |  |  |  |  |
| NC(N)=N/N=C/c1c(-c2ccsc2)nc2sccn12 | 24.3 |  | 27.2 | 56.4 | 24.5 | 40 | 34.2 | 22.7 | 12 | 22.3 | 38.1 | 13.7 | 16.3 | 12.1 | 16.6 | 30.3 | 17.9 | 18.3 | 10.8 |  |
| CNCc1ccccc1-c1csc([C@@H](C)Nc2nc(C)nc3cc(OC)c(OC)cc23)c1 | 2.87 | 2.9 | 3.41 |  | 11.9 | 2.84 | 2.94 | 2.52 | 1.52 | 1.76 | 3.55 | 1.71 |  | 3.27 | 3.29 | 13.6 | 1.31 | 1.5 | 1.09 | 1.43 |
| N.N.N.N.O=C([O-])CCl.O=C([O-])CCl.[Co+3].[O-][Cl+3]([O-])([O-])[O-] | > 100 | > 100 | > 100 | > 100 | > 100 |  | > 100 | > 100 | > 100 |  |  | > 100 | > 100 | > 100 | > 100 | > 100 |  | > 100 | > 100 | > 100 |
| CCN(CC)CCCN1CCc2c([nH]c3ccccc23)C1c1cccnc1 (centres undefined) | > 100 | > 100 | > 100 | > 100 | > 100 | > 100 | > 100 | > 100 |  |  |  |  |  |  |  | > 100 |  |  |  |  |
| CC[As](CC)SC[C@H](C)C(=O)N1CCC[C@H]1C(=O)O | 0.0743 |  | 0.162 | 0.0757 | 1.27 | 0.475 | 0.136 | 0.396 | 0.021 | 0.0749 | 0.515 | 0.0419 | 0.023 | 0.301 | 0.245 | 0.735 | < 0.0297 | 0.0291 | 0.113 |  |
| OC(CC1SCCCS1)c1ccccc1 (centres undefined) | > 100 | > 100 | > 100 | > 100 | > 100 | > 100 | > 100 | > 100 |  |  |  |  |  |  |  | > 100 |  |  |  |  |
| Cc1ccc(S(=O)(=O)Nc2ccccc2C=O)cc1 | 35.9 |  | 28 | 27.6 | 33.5 | > 100 | 5.08 | 52.4 |  |  | 58.8 |  |  |  |  | 67 |  |  |  |  |
| CC(=O)N=C1N(/C=C2\C(=O)Oc3ccccc3C2=O)C(=O)/C(=C/c2cccc(Cl)c2Cl)N1C | > 100 | 31.4 | > 100 | > 100 | > 100 | 84.6 | 27.7 |  |  |  | 75.3 |  |  |  |  | > 100 |  |  |  |  |
| CSc1nc(=O)n(CCC#N)nc1SC | 44.6 | 31.9 | 30.1 | 30.7 | > 100 |  | > 100 | > 100 |  |  | 55.1 |  |  |  |  | > 100 |  |  |  |  |
| CC1(C)COC(C2(C)C(=O)C=C(c3ccccc3)c3ccccc32)=N1 (centres undefined) | > 100 |  | > 100 | 67.7 | > 100 | > 100 | > 100 | > 100 |  |  |  |  |  |  |  |  |  |  |  |  |
| CCCCC#CC1=C(Br)C(=O)OC1 | 5.14 |  | 0.327 | > 100 | 3.89 | 4.57 | 14.4 | 4.53 | 2 | 1.8 | 5.91 | 0.139 | 0.249 | 1.8 | 2.73 | 7.38 | 1.89 | 2.52 | 1.8 |  |
| COc1ccc2occ(CCC(=O)O)c2c1 | > 100 | > 100 | > 100 | > 100 |  | > 100 | > 100 | > 100 |  |  |  |  |  |  |  |  |  |  |  |  |
| O=C(CCN(C(=O)O)S(=O)(=O)c1ccc(NC(=O)c2ccccc2)cc1)Nc1ccccc1 | > 100 | > 100 | > 69.5 | > 75.2 | > 100 | > 100 | > 100 | > 100 |  |  |  |  |  |  |  | > 100 |  |  |  |  |
| CO/N=C(/C)c1cccc(Nc2cc(-n3nnc4ccccc43)nc3ccccc23)c1 | > 100 | > 100 | > 100 |  | 5.78 |  | > 100 | > 100 | 45.5 | 63.2 | > 100 | 27 |  |  | 41.7 | > 100 |  | 45.5 | 26 | 25.7 |
| CCOC(=O)C(C#N)C1=CC(=O)C(=O)c2ccc(OC)cc21 (centres undefined) | 64.9 | 29.8 | 44.8 | > 100 | 41.3 | 47.5 | 33.5 | > 100 |  |  |  |  |  |  |  | 40.5 |  |  |  |  |
| CC1(C)C(C#N)C1C1=C(N2CCOCC2)[C@]2(C)C(OC(=O)c3ccccc3)CC[C@@H]2C1 (some centres undefined) | > 100 | > 100 | > 100 |  | > 100 | > 100 | > 100 | > 100 |  |  | > 100 |  |  |  |  | > 100 |  |  |  |  |
| COC(=O)C(C(=O)c1ccccc1)C(C(=O)C(=O)Nc1ccc(OC)cc1OC)C(=O)C(=O)c1ccc(C)cc1 (centres undefined) | > 100 | > 100 | > 100 | > 100 | > 100 | > 100 | > 100 | > 100 |  |  |  |  |  |  |  | > 100 |  |  |  |  |
| c1ccc2cc(-c3cc4ccccc4s3)ccc2c1 | > 100 | > 100 | > 100 | > 100 | > 100 |  | > 100 | > 100 |  |  |  |  |  |  |  | > 100 |  |  |  |  |
